Measured values published in patent publication US20060234971A1 (priority 2005, published 2006).
Where “and” joins values, the source holds several entries; their conditions need not be identical. Equal entries are not always repeated. Where two headings read alike, the source gives them in different places. Peptide text beside a SMILES is read from it. * marks the point of attachment. Cbz = O=C(OCc1ccccc1)*; CH2F = FC*

What was measured:
[1] = system: C2 production in SMB cells; assay: cells; type: cell-based, mouse; settings: for IC50: read-out: concentration producing 50% inhibition of C2 accumulation (IC50)
[2] = system: C1 production in SMB cells; type: cell-based, mouse
[3] = system: prion replication in SMB cells; settings: mouse, in vivo
[4] = system: calpain-mediated cleavage of PrP in SMB cells; type: cell-based, mouse
[5] = system: PrP^Sc accumulation in ScN2a cells; settings: cited from earlier work

In the case of “Cbz-Leu-Leu-Tyr-CH2F [calpain inhibitor IV]”, the “effect on production of C2” value [1] is reported as “apparently complete elimination of C2”, the IC50 [1] is reported as 450 nM and the “C1 levels” value [2] is reported as “C1 levels declined”. For the same compound, the “C1 levels higher than control treated SMB cells” value [2] was ~2 fold and the “cell toxicity / cell survival” value (SMB cells) was “cell toxicity is not triggered”.
With calpastatin the “levels of C2 lower than control transfected cells” value [1] was 64±15%.
In the case of CCCC[C@@H](C=O)NC(=O)[C@H](CC(C)C)NC(=O)OCc1ccccc1 [calpeptin, Benzyloxycarbonylleucyl-norleucinal], the “reduction in C2” value [1] is reported as 71±7.1% and the “cell toxicity / cell survival” value (SMB cells) is reported as “cell toxicity is not triggered”.
For CC(C)[C@H](NC(=O)OCc1ccccc1)C(=O)N[C@H](C=O)Cc1ccccc1 [MDL28170, Carbobenzoxy-valinyl-phenylalaninal] (Cbz-Val-Phe-aldehyde), the C2 by immunoblotting [1] was “undetectable”, the “reduction in C2” value [1] was 63±19.7% and 75±6.8% and the IC50 ([1]; Mus musculus, SMB) was ~4000 nM. For the same compound, the “C1 levels” value [2] was “increased to levels similar to calpain inhibitor IV-treated SMB cells”, the “prion titers in treated SMB cells” value [3] was “reduced prion titers” and the “cell toxicity / cell survival” value (SMB cells) was “cell toxicity is not triggered”.
For C[C@H](CCC(=O)O)C[C@H](C)C[C@H](C)C(=O)/C=C(\O)[C@H](C)C[C@H](C)C/C=C/[C@@H](C)[C@@H](O)[C@@H](C)[C@@H](O)C[C@@H]1CC[C@@](C)([C@H]2CC[C@@](C)([C@@H](C)O)O2)O1 [ionomycin], the “increase in C2 levels compared to control” value [4] was ~7 fold.
In the case of CC(=O)N[C@@H](CC(C)C)C(=O)N[C@@H](CC(C)C)C(=O)N[C@H](C=O)CCCNC(=N)N [leupeptin], the “PrP^Sc accumulation in ScN2a cells” value [5] is listed as “affected PrP^Sc accumulation”.
For “Z-FY(t-Bu)-DMK [cathepsin L inhibitor III]”, the “effect on production of C2” value [1] was “unaffected”.
For CNc1ccc2oc(C[C@H]3O[C@@]4(CC[C@H]3C)O[C@H]([C@H](C)C(=O)c3ccc[nH]3)[C@H](C)C[C@H]4C)nc2c1C(=O)O [A23187], the “increase of C2” value [4] was 3.5 fold.
In the case of “Z-FG-NHO-BzOME [cathepsin inhibitor III]”, the “effect on production of C2” value [1] is reported as “unaffected”.
